Assay results as given in US20150010639A1, “PHAR[…] DIETARY COMPOSITIONS BASED ON SHORT-CHAIN FATTY ACIDS AND COMPLEX SUGARS, FOR INTESTINAL DISORDERS” (COSMO TECHNOLOGIES LTD., priority 2004, published 2015).

Test system: inflammatory bowel disease (IBD), symptom of diarrhoea
Assay: clinical study in patients with inflammatory bowel disease (IBD): symptom of diarrhoea on subjective 5-point scale
Assay type: in vivo, adult patients
Conditions: n = 6 IBD patients; for Diarrhoea % improvement relative to the base time / Diarrhoea mean intensity, final: after 4 weeks of daily oral treatment, 250 mg of each active; for Diarrhoea mean intensity, final / Diarrhoea mean intensity, base: scale 0 to 4; for Diarrhoea mean intensity, base: base time before treatment
Experimental: The clinical study described below was performed with the tablets thus produced.
The study was performed on 18 adult patients of both sexes, divided into three homogeneous groups each of 6 patients, who were suffering from inflammatory bowel disease (IBD) and were treated as follows:
Group 1: 250 mg butyric acid
Group 3: 250 mg butyric acid+250 mg inulin
The active ingredients were transported in tablets which were indistinguishable in shape, size, weight and colour.
The treatments were administered orally daily before the main meal for a period of 4 weeks.
Before the start of the treatment (base time) and then upon completion of the 4 weeks of treatment, each patient was assessed for the presence of the symptom of diarrhoea.
This symptom was quantified, according to its intensity, on a subjective 5-point scale graduated from 0 (absence of indisposition) to 4 (indisposition of considerable gravity). The mean intensity at the base time and at the end of the period of treatment and the percentage of improvement relative to the base time were calculated for this symptom.

| Molecule | Diarrhoea % improvement relative to the base time [%] | Diarrhoea mean intensity, final | Diarrhoea mean intensity, base |
| --- | --- | --- | --- |
| CCCC(=O)O [butyric acid] | 44 | 1.5 | 2.7 |
| inulin | 27 | 2.1 | 2.9 |
